{"source": "paper PMC5218480", "about": "(PLoS ONE, 2017)", "system": "MV-4-11 cells", "assay": "Gene expression microarray analysis (Affymetrix PrimeView) and GSEA", "format": "cell-based, human", "parameters": "RFU PODN (11730768_x_at) / Fold change /veh PODN (11730768_x_at) / RFU LINC00158 (11744669_a_at) / Fold change /veh LINC00158 (11744669_a_at) / RFU DUSP10 (11751237_a_at) / Fold change /veh DUSP10 (11751237_a_at) / RFU ID3 (11757404_x_at) / Fold change /veh ID3 (11757404_x_at) / RFU PLEKHG5 (11737974_s_at) / Fold change /veh PLEKHG5 (11737974_s_at) / RFU LRRC4B (11730491_at) / Fold change /veh LRRC4B (11730491_at) / RFU GIMAP4 (11747438_a_at) / Fold change /veh GIMAP4 (11747438_a_at) / RFU KRT8 (11758183_x_at) / Fold change /veh KRT8 (11758183_x_at) / RFU CNN1 (11734310_a_at) / Fold change /veh CNN1 (11734310_a_at) / RFU VPS37D (11726825_at) / Fold change /veh VPS37D (11726825_at) / RFU C10orf10 (11716522_x_at) / Fold change /veh C10orf10 (11716522_x_at) / RFU KIR2DL2 /// KIR2DL4 /// KIR2DL5A /// KIR2DL5B /// KIR2DS1 /// KIR2DS2 /// KIR2DS3 /// KIR2DS4 /// KIR3DL3 /// KIR3DL3 /// KIR3DS1 (11738374_at) / Fold change /veh KIR2DL2 /// KIR2DL4 /// KIR2DL5A /// KIR2DL5B /// KIR2DS1 /// KIR2DS2 /// KIR2DS3 /// KIR2DS4 /// KIR3DL3 /// KIR3DL3 /// KIR3DS1 (11738374_at) / RFU C1QL1 (11718748_at) / Fold change /veh C1QL1 (11718748_at) / RFU TMPRSS4 (11747572_a_at) / Fold change /veh TMPRSS4 (11747572_a_at) / RFU HAMP (11756126_x_at) / Fold change /veh HAMP (11756126_x_at) / RFU RNFT2 (11725882_a_at) / Fold change /veh RNFT2 (11725882_a_at) / RFU NR4A2 (11747474_a_at) / Fold change /veh NR4A2 (11747474_a_at) / RFU ABCC12 (11746883_a_at) / Fold change /veh ABCC12 (11746883_a_at) / RFU TMEM136 (11760407_x_at) / Fold change /veh TMEM136 (11760407_x_at) / RFU CLDN22 /// WWC2 (11732394_at) / Fold change /veh CLDN22 /// WWC2 (11732394_at) / RFU HLA-DPB1 (11760878_x_at) / Fold change /veh HLA-DPB1 (11760878_x_at) / RFU SPINT1 (11716480_a_at) / Fold change /veh SPINT1 (11716480_a_at) / RFU GAP43 (11754022_s_at) / Fold change /veh GAP43 (11754022_s_at) / RFU A4GNT (11735810_at) / Fold change /veh A4GNT (11735810_at) / RFU PRB3 (11715151_x_at) / Fold change /veh PRB3 (11715151_x_at) / RFU TUBB4B (11761932_at) / Fold change /veh TUBB4B (11761932_at) / RFU CAPN14 (11732068_a_at) / Fold change /veh CAPN14 (11732068_a_at) / RFU TMCC2 (11721928_a_at) / Fold change /veh TMCC2 (11721928_a_at) / RFU IRGQ (11745062_a_at) / Fold change /veh IRGQ (11745062_a_at) / RFU FAM174B (11720279_a_at) / Fold change /veh FAM174B (11720279_a_at) / RFU TMPRSS4 (11748680_a_at) / Fold change /veh TMPRSS4 (11748680_a_at) / RFU FAM212B (11763350_a_at) / Fold change /veh FAM212B (11763350_a_at) / RFU PLEKHG5 (11743358_a_at) / Fold change /veh PLEKHG5 (11743358_a_at) / RFU ZSCAN30 (11745921_a_at) / Fold change /veh ZSCAN30 (11745921_a_at) / RFU CMKLR1 (11741424_a_at) / Fold change /veh CMKLR1 (11741424_a_at) / RFU LOC101060620 /// MAPK8IP1 (11723275_at) / Fold change /veh LOC101060620 /// MAPK8IP1 (11723275_at) / RFU SPTSSB (11747773_x_at) / Fold change /veh SPTSSB (11747773_x_at) / RFU PRSS12 (11739890_at) / Fold change /veh PRSS12 (11739890_at) / RFU BIN1 (11741810_x_at) / Fold change /veh BIN1 (11741810_x_at) / RFU WNT11 (11732464_a_at) / Fold change /veh WNT11 (11732464_a_at) / RFU C10orf10 (11716521_a_at) / Fold change /veh C10orf10 (11716521_a_at) / RFU C5orf56 (11738089_at) / Fold change /veh C5orf56 (11738089_at) / RFU CYB561 (11721691_x_at) / Fold change /veh CYB561 (11721691_x_at) / RFU ANKRD19P (11752326_a_at) / Fold change /veh ANKRD19P (11752326_a_at) / RFU OR2T12 /// OR2T33 /// OR2T8 (11738714_s_at) / Fold change /veh OR2T12 /// OR2T33 /// OR2T8 (11738714_s_at) / RFU VCAN (11748164_a_at) / Fold change /veh VCAN (11748164_a_at) / RFU JSRP1 (11732532_at) / Fold change /veh JSRP1 (11732532_at) / RFU KRTAP10-11 (11738290_x_at) / Fold change /veh KRTAP10-11 (11738290_x_at) / RFU MYO3A (11730013_a_at) / Fold change /veh MYO3A (11730013_a_at) / RFU EBF3 (11725865_a_at) / Fold change /veh EBF3 (11725865_a_at) / RFU CAMK2N1 (11719241_x_at) / Fold change /veh CAMK2N1 (11719241_x_at) / RFU C5orf56 (11738088_a_at) / Fold change /veh C5orf56 (11738088_a_at) / RFU OLFML3 (11715873_a_at) / Fold change /veh OLFML3 (11715873_a_at) / RFU LOC100653217 /// NTM (11731650_a_at) / Fold change /veh LOC100653217 /// NTM (11731650_a_at) / RFU MAPK11 (11762145_a_at) / Fold change /veh MAPK11 (11762145_a_at) / RFU FIZ1 (11724087_x_at) / Fold change /veh FIZ1 (11724087_x_at) / RFU OASL (11726364_x_at) / Fold change /veh OASL (11726364_x_at) / RFU SOX15 (11748057_x_at) / Fold change /veh SOX15 (11748057_x_at) / RFU CD79A (11719716_a_at) / Fold change /veh CD79A (11719716_a_at) / RFU HIST1H1D (11736915_at) / Fold change /veh HIST1H1D (11736915_at) / RFU CASKIN2 (11723855_a_at) / Fold change /veh CASKIN2 (11723855_a_at) / RFU LOC730098 (11760151_x_at) / Fold change /veh LOC730098 (11760151_x_at) / RFU OR4N2 (11742367_at) / Fold change /veh OR4N2 (11742367_at) / RFU PRRT2 (11749266_a_at) / Fold change /veh PRRT2 (11749266_a_at) / RFU SNX32 (11753110_a_at) / Fold change /veh SNX32 (11753110_a_at) / RFU CDHR5 (11726645_a_at) / Fold change /veh CDHR5 (11726645_a_at) / RFU RCAN1 (11760418_a_at) / Fold change /veh RCAN1 (11760418_a_at) / RFU FAM167A (11723789_a_at) / Fold change /veh FAM167A (11723789_a_at) / RFU FAM26E (11764081_at) / Fold change /veh FAM26E (11764081_at) / RFU ISYNA1 (11749810_s_at) / Fold change /veh ISYNA1 (11749810_s_at) / RFU ACY1 (11761880_at) / Fold change /veh ACY1 (11761880_at) / RFU 11764098_at / Fold change /veh 11764098_at / RFU SAMD14 (11745864_x_at) / Fold change /veh SAMD14 (11745864_x_at) / RFU NPB (11741838_a_at) / Fold change /veh NPB (11741838_a_at) / RFU TMPRSS6 (11731388_a_at) / Fold change /veh TMPRSS6 (11731388_a_at) / RFU KRTAP10-2 (11738614_at) / Fold change /veh KRTAP10-2 (11738614_at) / RFU ARHGAP8 /// PRR5-ARHGAP8 (11727945_x_at) / Fold change /veh ARHGAP8 /// PRR5-ARHGAP8 (11727945_x_at) / RFU KRTAP5-7 /// NADSYN1 (11734609_at) / Fold change /veh KRTAP5-7 /// NADSYN1 (11734609_at) / RFU RASL12 (11751679_a_at) / Fold change /veh RASL12 (11751679_a_at) / RFU CDKN2B (11736163_a_at) / Fold change /veh CDKN2B (11736163_a_at) / RFU PRF1 (11729649_at) / Fold change /veh PRF1 (11729649_at) / RFU, ZNF638 /// ZNF638-IT1 / Fold change vs veh, ZNF638 /// ZNF638-IT1 / RFU, PANK3 / Fold change vs veh, PANK3 / RFU, SH3YL1 / Fold change vs veh, SH3YL1 / RFU, ZEB2 / Fold change vs veh, ZEB2 / RFU, NRIP1 / Fold change vs veh, NRIP1 / RFU, PTTG1IP / Fold change vs veh, PTTG1IP / RFU, CAPN2 / Fold change vs veh, CAPN2 / RFU, MED14 / Fold change vs veh, MED14 / RFU, SNORA58 / Fold change vs veh, SNORA58 / RFU, C1orf63 / Fold change vs veh, C1orf63 / RFU, LRRFIP1 / Fold change vs veh, LRRFIP1 / RFU, NDUFAF7 / Fold change vs veh, NDUFAF7 / RFU, SLC12A2 / Fold change vs veh, SLC12A2 / RFU, IBTK / Fold change vs veh, IBTK / RFU, ESF1 / Fold change vs veh, ESF1 / Fold change vs veh, TMEM50B / RFU, TAOK1 / Fold change vs veh, TAOK1 / RFU, ACBD3 / Fold change vs veh, ACBD3 / RFU, TMA16 / Fold change vs veh, TMA16 / RFU, RWDD3 / Fold change vs veh, RWDD3 / RFU, BCAT1 / Fold change vs veh, BCAT1 / RFU, EDEM3 / Fold change vs veh, EDEM3 / RFU, TMEM33 / Fold change vs veh, TMEM33 / RFU, WDR75 / Fold change vs veh, WDR75 / RFU, AHCTF1 / Fold change vs veh, AHCTF1 / RFU, TFRC / Fold change vs veh, TFRC / RFU, ZDHHC17 / Fold change vs veh, ZDHHC17 / RFU, NOM1 / Fold change vs veh, NOM1 / RFU, ARL8B / Fold change vs veh, ARL8B / RFU, ZBTB11 / Fold change vs veh, ZBTB11 / RFU, TAMM41 / Fold change vs veh, TAMM41 / RFU, KIAA1704 /// LOC100996395 / Fold change vs veh, KIAA1704 /// LOC100996395 / RFU, ING1 / Fold change vs veh, ING1 / RFU, TRMT61B / Fold change vs veh, TRMT61B / RFU, FUBP3 / Fold change vs veh, FUBP3 / RFU, TP53 / Fold change vs veh, TP53 / RFU, TNKS2 / Fold change vs veh, TNKS2 / RFU, ZFP14 / Fold change vs veh, ZFP14 / RFU, ACTR2 / Fold change vs veh, ACTR2 / RFU, PPP3R1 / Fold change vs veh, PPP3R1 / RFU, PIK3R1 / Fold change vs veh, PIK3R1 / RFU, HNRNPA1 / Fold change vs veh, HNRNPA1 / RFU, RNF170 / Fold change vs veh, RNF170 / RFU, ZNF28 / Fold change vs veh, ZNF28 / RFU, RNGTT / Fold change vs veh, RNGTT / RFU, OGT / Fold change vs veh, OGT / RFU, BRD1 / Fold change vs veh, BRD1 / RFU, MARS / Fold change vs veh, MARS / RFU, ZNF655 / Fold change vs veh, ZNF655 / RFU, FAHD1 / Fold change vs veh, FAHD1 / RFU, BDP1 / Fold change vs veh, BDP1 / RFU, LRRCC1 / Fold change vs veh, LRRCC1 / RFU, ARID1A / Fold change vs veh, ARID1A / RFU, ZNF146 / Fold change vs veh, ZNF146 / RFU, ZNF330 / Fold change vs veh, ZNF330 / RFU, GPN3 / Fold change vs veh, GPN3 / RFU, C9orf123 / Fold change vs veh, C9orf123 / RFU, N4BP2L2 / Fold change vs veh, N4BP2L2 / RFU, ARFIP1 / Fold change vs veh, ARFIP1 / RFU, FAM179B / Fold change vs veh, FAM179B / RFU, BCL10 / Fold change vs veh, BCL10 / RFU, UHRF1BP1L / Fold change vs veh, UHRF1BP1L / RFU, BET1 / Fold change vs veh, BET1 / RFU, CNOT2 / Fold change vs veh, CNOT2 / RFU, ZNF268 / Fold change vs veh, ZNF268 / Fold change vs veh, ZNF507 / RFU, DGCR2 / Fold change vs veh, DGCR2 / RFU, WDSUB1 / Fold change vs veh, WDSUB1 / Fold change vs veh, HSP90B1 /// MIR3652 / RFU, ADSS / Fold change vs veh, ADSS / RFU, GK / Fold change vs veh, GK / RFU, ZNF148 / Fold change vs veh, ZNF148 / RFU, TAF9 / Fold change vs veh, TAF9 / RFU, SLC1A5 / Fold change vs veh, SLC1A5 / RFU, SLMO2 / Fold change vs veh, SLMO2 / RFU, ABCC4 / Fold change vs veh, ABCC4 / RFU, LOC101060439 /// RAP1B / Fold change vs veh, LOC101060439 /// RAP1B / RFU, RFX7 / Fold change vs veh, RFX7 / RFU, GTPBP10 / Fold change vs veh, GTPBP10 / RFU, CNEP1R1 / Fold change vs veh, CNEP1R1 / RFU, BIVM-ERCC5 /// ERCC5 / Fold change vs veh, BIVM-ERCC5 /// ERCC5 / RFU, ILF3 / Fold change vs veh, ILF3 / RFU 11762660_at / Fold change /veh 11762660_at / RFU VCAN (11757783_s_at) / Fold change /veh VCAN (11757783_s_at) / RFU DDX43 (11728927_at) / Fold change /veh DDX43 (11728927_at) / RFU KRT8 (11758188_x_at) / Fold change /veh KRT8 (11758188_x_at) / RFU NKD1 (11759106_at) / Fold change /veh NKD1 (11759106_at) / RFU SRD5A1 (11742802_a_at) / Fold change /veh SRD5A1 (11742802_a_at) / RFU TPSAB1 /// TPSB2 (11721975_s_at) / Fold change /veh TPSAB1 /// TPSB2 (11721975_s_at) / RFU GSTM3 (11746129_a_at) / Fold change /veh GSTM3 (11746129_a_at) / RFU IL23R (11737362_x_at) / Fold change /veh IL23R (11737362_x_at) / RFU TMEM51 (11727254_a_at) / Fold change /veh TMEM51 (11727254_a_at) / RFU PIWIL2 (11732686_x_at) / Fold change /veh PIWIL2 (11732686_x_at) / RFU ORM1 (11744905_x_at) / Fold change /veh ORM1 (11744905_x_at) / RFU CCDC152 (11743942_at) / Fold change /veh CCDC152 (11743942_at) / RFU ECM1 (11717891_a_at) / Fold change /veh ECM1 (11717891_a_at) / RFU IL23R (11748794_a_at) / Fold change /veh IL23R (11748794_a_at) / RFU TNFAIP8L3 (11732012_x_at) / Fold change /veh TNFAIP8L3 (11732012_x_at) / RFU MBOAT4 (11741988_at) / Fold change /veh MBOAT4 (11741988_at) / RFU 11764193_at / Fold change /veh 11764193_at / RFU TMEM53 (11763286_at) / Fold change /veh TMEM53 (11763286_at) / RFU MAGEB2 (11727129_at) / Fold change /veh MAGEB2 (11727129_at) / RFU TMEM200A (11744735_a_at) / Fold change /veh TMEM200A (11744735_a_at) / RFU CCDC152 (11751479_a_at) / Fold change /veh CCDC152 (11751479_a_at) / RFU FAM211A (11726209_a_at) / Fold change /veh FAM211A (11726209_a_at) / RFU RGS16 (11746705_a_at) / Fold change /veh RGS16 (11746705_a_at) / RFU VCAN (11755009_s_at) / Fold change /veh VCAN (11755009_s_at) / RFU RHOB (11743442_s_at) / Fold change /veh RHOB (11743442_s_at) / RFU RGS16 (11720943_a_at) / Fold change /veh RGS16 (11720943_a_at) / RFU RGS16 (11720944_at) / Fold change /veh RGS16 (11720944_at) / RFU, VPS4B / Fold change vs veh, VPS4B / RFU, CREB1 / Fold change vs veh, CREB1 / RFU, DNAJC13 / Fold change vs veh, DNAJC13 / RFU, GNAQ / Fold change vs veh, GNAQ / RFU, CDK5R1 / Fold change vs veh, CDK5R1 / RFU, ZRANB3 / Fold change vs veh, ZRANB3 / RFU, CUL4A / Fold change vs veh, CUL4A / RFU, CCNY / Fold change vs veh, CCNY / RFU, UFL1 / Fold change vs veh, UFL1 / RFU, COG3 / Fold change vs veh, COG3 / RFU, DIAPH2 / Fold change vs veh, DIAPH2 / RFU, SKA2 / Fold change vs veh, SKA2 / RFU, AFF3 / Fold change vs veh, AFF3 / RFU, LMF1 / Fold change vs veh, LMF1 / RFU, IPO11 / Fold change vs veh, IPO11 / RFU, DFFB / Fold change vs veh, DFFB / RFU, FOXP1 / Fold change vs veh, FOXP1 / RFU, CARD8 / Fold change vs veh, CARD8 / RFU, STRN3 / Fold change vs veh, STRN3 / RFU, ADK / Fold change vs veh, ADK / RFU, RASSF2 / Fold change vs veh, RASSF2 / RFU, WIPF1 / Fold change vs veh, WIPF1 / RFU, LARP1B / Fold change vs veh, LARP1B / RFU, RASA1 / Fold change vs veh, RASA1 / RFU, RB1 / Fold change vs veh, RB1 / RFU, PPFIA1 / Fold change vs veh, PPFIA1 / RFU, MAT2A / Fold change vs veh, MAT2A / RFU, CCT5 / Fold change vs veh, CCT5 / RFU, WDR92 / Fold change vs veh, WDR92 / RFU, CUX1 / Fold change vs veh, CUX1 / RFU, TTC7A / Fold change vs veh, TTC7A / RFU, TMEM135 / Fold change vs veh, TMEM135 / RFU, DEPTOR / Fold change vs veh, DEPTOR / RFU, CPM / Fold change vs veh, CPM / RFU, DNAJB6 / Fold change vs veh, DNAJB6 / RFU, CACNA2D3 / Fold change vs veh, CACNA2D3 / RFU, DTX4 / Fold change vs veh, DTX4 / RFU, TFCP2 / Fold change vs veh, TFCP2 / RFU, GMCL1 /// GMCL1P1 / Fold change vs veh, GMCL1 /// GMCL1P1 / RFU, AEBP2 / Fold change vs veh, AEBP2 / RFU, SNHG1 /// SNORD22 /// SNORD25 /// SNORD26 /// SNORD27 /// SNORD28 /// SNORD29 /// SNORD31 / Fold change vs veh, SNHG1 /// SNORD22 /// SNORD25 /// SNORD26 /// SNORD27 /// SNORD28 /// SNORD29 /// SNORD31 / Fold change (Aza/veh), C12orf56 (ProbeSet 11735607_a_at) / Fold change (ACY-1035/veh), C12orf56 (ProbeSet 11735607_a_at) / Fold change (Aza/veh), FGFR1OP (ProbeSet 11751329_s_at) / Fold change (ACY-1035/veh), FGFR1OP (ProbeSet 11751329_s_at) / Fold change (Aza/veh), VPS36 (ProbeSet 11739960_a_at) / Fold change (ACY-1035/veh), VPS36 (ProbeSet 11739960_a_at) / RFU SYPL1 (11715823_x_at) / Fold change /veh SYPL1 (11715823_x_at) / RFU IGFBP7 (11715501_s_at) / Fold change /veh IGFBP7 (11715501_s_at) / RFU REEP3 (11722064_at) / Fold change /veh REEP3 (11722064_at) / RFU IGLL1 (11728026_x_at) / Fold change /veh IGLL1 (11728026_x_at): dose or concentration left out as unconfirmed", "conditions": "MV-4-11 cells, 48 hours", "data": [{"smiles": "Nc1ncn([C@@H]2O[C@H](CO)[C@@H](O)[C@H]2O)c(=O)n1", "note": "[azacitidine]", "values": [{"measurement": "Fold change /veh IGLL1 (11728026_x_at)", "result": 0.66}]}]}
